The subject of this assay is airway smooth muscle (ASM) tissues. Kind of assay: Isometric constrictor responsiveness to acetylcholine in isolated rabbit tracheal ASM rings (organ bath). The format is cell-based. To be noted: control (not cytokine-exposed) ASM, DEX 1 μM, 24 hours.

Each structure is given as a SMILES string.

Experimental: Following general anesthesia with xylazine (10 mg/kg) and ketamine 50 mg/kg), NZW rabbits were sacrificed by air embolism and the tracheae were removed, cleaned of loose connective tissue and epithelium, and divided into ring segments.
Following incubation, the ASM tissue segments were placed in organ baths containing modified Krebs Ringer solution, and aerated with 5% CO2 in oxygen at 37° C. The tissues' isometric cholinergic contractility was subsequently assessed by cumulative administration of acetylcholine (ACh; 10^−10 to 10^−3 M).

For `C[C@@H]1C[C@H]2[C@@H]3CCC4=CC(=O)C=C[C@]4(C)[C@@]3(F)[C@@H](O)C[C@]2(C)[C@@]1(O)C(=O)CO` [DEX, dexamethasone], the “effect on constrictor responses to ACh in control ASM” value was “no effect”.
